Activity calls are given as the source filed them. No cut-off for these calls is given here.
Assays:
Nucleic Acid [1] = experiment: Induction of supercoiled pDesR3 DNA cleavage at 10 uM after 2 to 12 hrs by agarose gel electrophoresis; assay type: nucleic-acid assay
Nucleic Acid [2] = experiment: Induction of single strand cleavage in supercoiled pDesR3 DNA at 10 uM after 2 to 12 hrs by agarose gel electrophoresis in presence of equimolar Cu(OAc)2; assay type: nucleic-acid assay
Nucleic Acid [3] = experiment: Induction of single strand cleavage in supercoiled pDesR3 DNA at 10 uM after 3 hrs by agarose gel electrophoresis in presence of equimolar Cu(OAc)2 and catalase; assay type: nucleic-acid assay
Nucleic Acid [4] = experiment: Induction of single strand cleavage in supercoiled pDesR3 DNA at 10 uM after 3 hrs by agarose gel electrophoresis in presence of equimolar Cu(OAc)2 and EDTA; assay type: nucleic-acid assay
Nucleic Acid [5] = experiment: Induction of single strand cleavage in supercoiled pDesR3 DNA at 10 uM after 3 hrs by agarose gel electrophoresis in presence of equimolar Cu(OAc)2 and SOD; assay type: nucleic-acid assay
Nucleic Acid [6] = experiment: Induction of single strand cleavage in supercoiled pDesR3 DNA at 10 uM after 3 hrs by agarose gel electrophoresis in presence of equimolar Cu(OAc)2 and NaN3; assay type: nucleic-acid assay
Nucleic Acid [7] = experiment: Induction of single strand cleavage in supercoiled pDesR3 DNA at 10 uM after 3 hrs by agarose gel electrophoresis in presence of equimolar Cu(OAc)2 and t-BuOH; assay type: nucleic-acid assay
Nucleic Acid [8] = experiment: Induction of single strand cleavage in supercoiled pDesR3 DNA at 10 uM after 3 hrs by agarose gel electrophoresis in presence of equimolar Cu(OAc)2 and DMSO; assay type: nucleic-acid assay
Nucleic Acid [9] = experiment: Induction of double strand cleavage in supercoiled pDesR3 DNA at 10 uM after 2 to 12 hrs by agarose gel electrophoresis in presence of equimolar Cu(OAc)2; assay type: nucleic-acid assay
Nucleic Acid [10] = experiment: Binding affinity at calf thymus DNA at 10 uM by UV-Vis spectrophotometer; assay type: nucleic-acid assay; settings: Bos taurus
Nucleic Acid [11] = experiment: Induction of single strand cleavage in laser-enhanced supercoiled pDesR3 DNA assessed as reduction in time required for single-strand break at 10 uM after 5 mins by agarose gel electrophoresis relative to control in presence of equimolar Cu(OAc)2; assay type: nucleic-acid assay; parameters: scale not given: the % may be the effect or the level left
Nucleic Acid [12] = experiment: Induction of supercoiled pDesR3 DNA cleavage assessed as half life of DNA cleavage after 2 to 12 hrs by agarose gel electrophoresis; assay type: nucleic-acid assay
Nucleic Acid [13] = experiment: Induction of supercoiled pDesR3 DNA cleavage after 2 to 12 hrs by agarose gel electrophoresis; assay type: nucleic-acid assay
T47D = experiment: Cytotoxicity against human T47D cells; assay type: functional, cell-based
MDA-MB-435 = experiment: Cytotoxicity against human MDA-MB-435 cells; assay type: functional, cell-based

Q: With `CC[C@H](C)[C@H]1C(=O)O[C@H]2c3cc(C)cc(O)c3C3=C(C(=O)c4c(O[C@H]5C[C@@H](O)[C@@H](O)[C@H](C)O5)cccc4C3=O)N12` [JADOMYCIN B] as the compound, how does the Activity (Nucleic Acid [1]) read?
A: inactive

Q: What about the Activity (Nucleic Acid [2]) of the same compound?
A: Active

Q: And the Activity (Nucleic Acid [3])?
A: inactive

Q: What about the Activity (Nucleic Acid [4]) of the same compound?
A: inactive

Q: What about the Activity (Nucleic Acid [5]) of the same compound?
A: inactive

Q: What about the Activity (Nucleic Acid [6]) of the same compound?
A: inactive

Q: What about the Activity (Nucleic Acid [7]) of the same compound?
A: inactive

Q: What about the Activity (Nucleic Acid [8]) of the same compound?
A: inactive

Q: And the Activity (Nucleic Acid [9])?
A: inactive

Q: What about the Activity (Nucleic Acid [10]) of the same compound?
A: inactive

Q: And the Activity (Nucleic Acid [11])?
A: 98%

Q: And the T1/2 (Nucleic Acid [12])?
A: 45 min

Q: What about the EC50 (Nucleic Acid [13]) of the same compound?
A: 1.7 µM

Q: And the EC50 (T47D)?
A: 9.92 µM

Q: And the EC50 (MDA-MB-435)?
A: 6.89 µM

Source: ChEMBL document CHEMBL1821597, “Copper-mediated nuclease activity of jadomycin B” (Bioorg Med Chem, 2011)
